{"source": "patent US8956662B2", "about": "“Phenylephrine pharmaceutical formulations and compositions for colonic absorption” (MSD Consumer Care, Inc., priority 2006, dated 2015)", "key": {"[1]": {"details": "oral dosage forms; cited from earlier work"}, "[2]": {"test": "Bioavailability of phenylephrine: plasma levels after delivery to the colon via Enterion capsules or oral Sudafed PE", "assay_type": "in vivo, human", "details": "for t1/2, unconjugated Phenylephrine / Tmax, unconjugated Phenylephrine: hydrochloride; for Tlag, unconjugated Phenylephrine / Tmax, unconjugated Phenylephrine: median (range); for AUC(0-t) / Cmax / bioavailability / concentration at 0.083 h / concentration at […] / concentration at 0.5 h / concentration at 1 h / concentration at 2 h / concentration at 3 h / concentration at 4 h / concentration at 6 h / concentration at 8 h / concentration at 12 h / concentration at 14 h / concentration at 16 h / concentration at 24 h: both sexes, human, plasma, oral; for Cmax: read-out: Cmax, unconjugated Phenylephrine; for bioavailability: read-out: Frel last (bioavailability relative to immediate release oral formulation), unconjugated Phenylephrine; for concentration at 0.083 h: 0.083 h post-dose; for concentration at 0.083 h / concentration at […] / concentration at 0.5 h / concentration at 1 h / concentration at 2 h / concentration at 3 h / concentration at 4 h / concentration at 6 h / concentration at 8 h / concentration at 12 h / concentration at 14 h / concentration at 16 h / concentration at 24 h: read-out: Mean plasma concentration (Unconjugated); for concentration at 0.5 h: 0.5 h post-dose; for concentration at 1 h: 1 h post-dose; for concentration at 2 h: 2 h post-dose; for concentration at 3 h: 3 h post-dose; for concentration at 4 h: 4 h post-dose; for concentration at 6 h: 6 h post-dose; for concentration at 8 h: 8 h post-dose; for concentration at 12 h: 12 h post-dose; for concentration at 14 h: 14 h post-dose; for concentration at 16 h: 16 h post-dose; for concentration at 24 h: 24 h post-dose", "description": "The following study was conducted to examine the phenylephrine absorption behavior in GI tract. […] Enterion™ capsules (Pharmaceutical Profiles Ltd, UK) allow for deployment of drug delivery at a desired location within the GI tract. To determine the capsules had reached a desired location, preparations of regimens A and C were administered orally with 210 mL water followed by a radiolabeled drink containing 4 MBq 99m-Tc-diethylenetriaminepetaacetic acid (DTPA) in 30 mL water so that the location of the ingested materials could be visualized by scintigraphic imaging. […] The blood samples were collected into a tube containing lithium heparin, centrifuged within 30 minutes at 1500 g for 15 minutes at 4 degrees Celsius. The plasma was analyzed for phenylephrine in its conjugated and unconjugated forms. The amount of conjugated phenylephrine was calculated by subtracting the amount of unconjugated phenylephrine assayed from the amount of total phenylephrine assayed.\nThe relative bioavailability, shown as Frel last in the table, indicates the bioavailability of phenylephrine administered to the colon relative to that administered as an immediate release oral formulation."}, "[3]": {"details": "conventional tablet formulation; cited from earlier work"}, "[4]": {"details": "10 mg PE-colon (Regimen A) n = 8"}, "[5]": {"details": "30 mg PE-colon (Regimen C) n = 6"}, "[6]": {"details": "10 mg PE-colon (Regimen A) n = 8, mean ± SD"}, "[7]": {"details": "10 mg to colon via Enterion capsule (Regimen A)"}, "[8]": {"details": "30 mg PE-colon (Regimen C) n = 6, mean ± SD"}, "[9]": {"details": "30 mg to colon via Enterion capsule (Regimen C)"}}, "note": "Where a name gives a salt, the structure may show the parent alone. Read-outs that look alike come from different tables or passages of the source."}
{"smiles": "CNC[C@H](O)c1cccc(O)c1", "note": "[Phenylephrine hydrochloride, phenylephrine hydrochloride]", "values": [{"measurement": "half-life of active phenylephrine in plasma", "setting": "[1]", "value": "approximately 2 hours"}, {"measurement": "t1/2, unconjugated Phenylephrine", "setting": "[2]; 10 mg PE-colon (Regimen A) n = 2, mean", "value": "8.19 (n = 2) hours"}, {"measurement": "Tlag, unconjugated Phenylephrine", "setting": "[2]; [4]", "value": "0.0800 (0–0.750)a hours"}, {"measurement": "Tmax, unconjugated Phenylephrine", "setting": "[2]; [4]", "value": "1.50 (0.250–3.00)a hours"}, {"measurement": "active unconjugated form as share of total phenylephrine concentration over time in plasma (AUC0-∞ unconjugated / AUC0-∞ total)", "setting": "[2]; 10 mg phenylephrine in immediate release form", "value": "≤ 0.5", "unit": "%"}, {"measurement": "active unconjugated form as share of total phenylephrine concentration over time in plasma (AUC0-∞ unconjugated / AUC0-∞ total)", "setting": "[2]; 10 mg phenylephrine released in the colon", "value": "approximately 2.2%"}, {"measurement": "t1/2, unconjugated Phenylephrine", "setting": "[2]; 30 mg PE-colon (Regimen C) n = 3, mean ± SD", "value": "10.8 ± 7.99 (n = 3) hours"}, {"measurement": "Tlag, unconjugated Phenylephrine", "setting": "[2]; [5]", "value": "0 (0–0.750)a hours"}, {"measurement": "Tmax, unconjugated Phenylephrine", "setting": "[2]; [5]", "value": "2.25 (0.750–6.03)a hours"}, {"measurement": "active unconjugated form as share of total phenylephrine concentration over time in plasma (AUC0-∞ unconjugated / AUC0-∞ total)", "setting": "[2]; 30 mg phenylephrine released in the colon", "value": "Approximately 5%"}, {"measurement": "increase of bioavailability versus oral immediate release form", "setting": "[2]; absorption from the lower intestinal tract", "value": "by a factor of three"}, {"measurement": "AUC(0-t)", "setting": "[2]; 10 mg, 10 mg PE-colon (Regimen A) n = 2, mean, read-out: AUC0–24, unconjugated Phenylephrine (Table 13)", "value": 2.87, "unit": "ng·h/mL"}, {"measurement": "AUC(0-t)", "setting": "[2]; 10 mg, 10 mg phenylephrine hydrochloride delivered to the colon, read-out: mean AUC0-24 value of unconjugated phenylephrine", "value": "1.58 ± 0.915", "unit": "ng·h/mL"}, {"measurement": "AUC(0-t)", "setting": "[2]; 30 mg, 30 mg PE-colon (Regimen C) n = 3, mean ± SD, read-out: AUC0–24, unconjugated Phenylephrine (Table 13)", "value": "8.94 ± 5.16", "unit": "ng·h/mL"}, {"measurement": "AUC(0-t)", "setting": "[2]; 30 mg, 30 mg phenylephrine hydrochloride delivered to the colon, read-out: mean AUC0-24 value of unconjugated phenylephrine", "value": "5.17 ± 1.56", "unit": "ng·h/mL"}, {"measurement": "Cmax", "setting": "[2]; [6]", "value": "0.4 ± 0.454", "unit": "ng/mL"}, {"measurement": "bioavailability", "setting": "[2]; [6]", "value": "332 ± 232", "unit": "%"}, {"measurement": "concentration at 0.083 h", "setting": "[2]; [7]", "value": 0.0586, "unit": "ng/mL"}, {"measurement": "concentration at […]", "setting": "[2]; 10 mg to colon via Enterion capsule (Regimen A), 0.25 h post-dose", "value": 0.304, "unit": "ng/mL"}, {"measurement": "concentration at 0.5 h", "setting": "[2]; [7]", "value": 0.145, "unit": "ng/mL"}, {"measurement": "concentration at […]", "setting": "[2]; 10 mg to colon via Enterion capsule (Regimen A), 0.75 h post-dose", "value": 0.125, "unit": "ng/mL"}, {"measurement": "concentration at 1 h", "setting": "[2]; [7]", "value": 0.135, "unit": "ng/mL"}, {"measurement": "concentration at […]", "setting": "[2]; 10 mg to colon via Enterion capsule (Regimen A), 1.5 h post-dose", "value": 0.16, "unit": "ng/mL"}, {"measurement": "concentration at 2 h", "setting": "[2]; [7]", "value": 0.187, "unit": "ng/mL"}, {"measurement": "concentration at […]", "setting": "[2]; 10 mg to colon via Enterion capsule (Regimen A), 2.5 h post-dose", "value": 0.182, "unit": "ng/mL"}, {"measurement": "concentration at 3 h", "setting": "[2]; [7]", "value": 0.165, "unit": "ng/mL"}, {"measurement": "concentration at 4 h", "setting": "[2]; [7]", "value": 0.15, "unit": "ng/mL"}, {"measurement": "concentration at 6 h", "setting": "[2]; [7]", "value": 0.111, "unit": "ng/mL"}, {"measurement": "concentration at 8 h", "setting": "[2]; [7]", "value": 0.068, "unit": "ng/mL"}, {"measurement": "concentration at 12 h", "setting": "[2]; [7]", "value": 0.058, "unit": "ng/mL"}, {"measurement": "concentration at 14 h", "setting": "[2]; [7]", "value": 0.059, "unit": "ng/mL"}, {"measurement": "concentration at 16 h", "setting": "[2]; [7]", "value": 0.064, "unit": "ng/mL"}, {"measurement": "concentration at 24 h", "setting": "[2]; [7]", "value": 0.059, "unit": "ng/mL"}, {"measurement": "Cmax", "setting": "[2]; [8]", "value": "0.468 ± 0.174", "unit": "ng/mL"}, {"measurement": "bioavailability", "setting": "[2]; [8]", "value": "333 ± 140", "unit": "%"}, {"measurement": "concentration at 0.083 h", "setting": "[2]; [9]", "value": 0.0458, "unit": "ng/mL"}, {"measurement": "concentration at […]", "setting": "[2]; 30 mg to colon via Enterion capsule (Regimen C), 0.25 h post-dose", "value": 0.0784, "unit": "ng/mL"}, {"measurement": "concentration at 0.5 h", "setting": "[2]; [9]", "value": 0.229, "unit": "ng/mL"}, {"measurement": "concentration at […]", "setting": "[2]; 30 mg to colon via Enterion capsule (Regimen C), 0.75 h post-dose", "value": 0.242, "unit": "ng/mL"}, {"measurement": "concentration at 1 h", "setting": "[2]; [9]", "value": 0.253, "unit": "ng/mL"}, {"measurement": "concentration at […]", "setting": "[2]; 30 mg to colon via Enterion capsule (Regimen C), 1.5 h post-dose", "value": 0.348, "unit": "ng/mL"}, {"measurement": "concentration at 2 h", "setting": "[2]; [9]", "value": 0.354, "unit": "ng/mL"}, {"measurement": "concentration at […]", "setting": "[2]; 30 mg to colon via Enterion capsule (Regimen C), 2.5 h post-dose", "value": 0.352, "unit": "ng/mL"}, {"measurement": "concentration at 3 h", "setting": "[2]; [9]", "value": 0.324, "unit": "ng/mL"}, {"measurement": "concentration at 4 h", "setting": "[2]; [9]", "value": 0.309, "unit": "ng/mL"}, {"measurement": "concentration at 6 h", "setting": "[2]; [9]", "value": 0.311, "unit": "ng/mL"}, {"measurement": "concentration at 8 h", "setting": "[2]; [9]", "value": 0.269, "unit": "ng/mL"}, {"measurement": "concentration at 12 h", "setting": "[2]; [9]", "value": 0.195, "unit": "ng/mL"}, {"measurement": "concentration at 14 h", "setting": "[2]; [9]", "value": 0.204, "unit": "ng/mL"}, {"measurement": "concentration at 16 h", "setting": "[2]; [9]", "value": 0.196, "unit": "ng/mL"}, {"measurement": "concentration at 24 h", "setting": "[2]; [9]", "value": 0.157, "unit": "ng/mL"}, {"measurement": "maximal plasma concentration of unconjugated phenylephrine as percentage of maximal plasma concentration of total phenylephrine", "setting": "[2]; immediate release formulation by oral administration", "value": "less than 0.7%"}]}
{"smiles": "CCOC(=O)N1CCC(=C2c3ccc(Cl)cc3CCc3cccnc32)CC1", "note": "[loratadine]", "values": [{"measurement": "time the antihistaminic effect lasts", "setting": "[3]", "value": "> 24", "unit": "h"}]}
